Earlier results, collected in US20220265689A1, “HIV PRE-EXPOSURE PROPHYLAXIS” (THE UNITED STATES OF AMERICA ,AS REPRESENTED BY THE …, priority 2019, published 2022).

Test system: HIV-1
Settings: HIV-1 T cells, activated PBMCs, macrophages

## CC(C)OC(=O)[C@H](C)N[P@](=O)(CO[C@H](C)Cn1cnc2c(N)ncnc21)Oc1ccccc1 [TAF, tenofovir alafenamide]
  enhanced anti-HIV activity relative to tenofovir: 500- to 10300 fold
